Test results published in patent publication US20250320228A1, “PYRIDO[3,2-D]PYRIMIDINES AS HPK1 INHIBITORS” (Merck Patent GmbH, priority 2022, published 2025).
Where two headings read alike, the source gives them in different places.

Experiments:
[1] = biological target: full-length human HPK1 (MAP4K1) (Homo sapiens (Human), UniProt Q92918); experiment: HPK1 kinase assay (biochemical, ADP-Glo); conditions: read-out: HPK1 enzymatic IC50
Excerpt: HPK1 kinase assay (Biochemical assay).
A recombinant fusion protein consisting of full-length human HPK1 (MAP4K1) with an N-terminal Glutatione S-transferase (GST) tag was produced in insect cells Sf21 using the baculovirus expression system. GST-HPK1 protein was purified from cell lysates by glutathione Sepharose affinity chromatography. The assay is run in three continuous steps: 1) the HPK1 enzymatic kinase reaction, 2) an ATP depletion, and 3) the ADP detection, the steps 2 and 3 are performed with ADP-Glo™ Kinase Assay kit from Promega (V9101). Test compounds were prepared by 10-point serial dilution in dimethyl sulfoxide (DMSO) and 100 nL of each dilution was spotted onto a 384-well Optiplate (Perkin Elmer and Cat #6007299) by Labcyte Echo. 5 μL kinase reaction buffer (0.02% Brij-35, 2 mM DTT, 50 mM HEPES pH 7.5, MgCl2 10 mM, BSA 0.01% and β-glycerophosphate 12.5 mM) containing HPK1 (3.2 nM) enzyme was transferred to each well and incubated for 15 minutes at room temperature at 60% humidity. The enzymatic reaction was started by adding 5 μl of Start-Mix (10 μM ATP and 3.235 μM MBP). After 120 minutes, the reaction was stopped by adding 5 μL of ADP-Glo reagent (Promega, V9101) and incubating for 40 min. in the dark at 23° C. To determine the level of ADP, 10 μl ADP-Glo Detection solution was added and incubated for 1 hour at 23° C. in the dark. The plate was transferred to a Perkin Elmer EnVision (2104 Multilabel Reader) for luminescence detection and percent inhibition activity and IC50 value were determined using Genedata Screener.

HPK1 pSLP76 (Ser376) = experiment: Cellular assay phospho-SLP-76 (Ser376); assay type: cell-based, human; conditions: read-out: HPK1 pSLP76 IC50
Procedure: Cellular Assay—Phospho-SLP-76 (Ser376).
Inhibition of HPK1 enzymatic activity in cells was determined by detection of SLP76 phosphorylation at Ser376 residue in lysate from Jurkat (human) and EL-4 (mouse) cells. Jurkat and EL-4 cells express both HPK1 and SLP76 naturally. All cells were cultured in RPMI 1640 media containing 10% heat inactivated fetal bovine serum (FBS) and 1× Penicillin-Streptomycin. In either Jurkat or El-4 assay, cells were pre-incubated with test compounds prior to T cell stimulation by respective αCD3/αCD28 Dynabeads™. For detection, plates were read on the Envision and percent inhibition and IC50 were determined by Smart fit in Genedata Analyzer.
For Jurkat cells: 35 μL cell suspension were dispensed at a density of 30,000 cells/well in 384-well plates containing HBSS (Gibco, 14025076)+0.1% BSA). 10-point logarithmic serial dilution of test compounds in DMSO were prepared by a Hamilton automated liquid handling robot and 35 nL was transferred into each well by an Echo liquid handler. After 60 min. pre-incubation, the cells were stimulated by adding 5 μL human T activator αCD3/αCD28 Dynabeads™ (Gibco, 11132D) at 1.2×107 beads/ml for 15 minutes at 37° C. Detection of Ser376 phosphorylation status was accomplished by first adding 10 μL of 5× AlphaLISA lysis buffer (Perkin Elmer, ALSU-PSLP-A500) to each well of the cell plate using a Multidrop Combi (5840300), followed by 20 minutes shaking. 10 μL cell lysate from each treatment were then transferred to a white 384-well plate (Corning 3572) and incubated with AlphaLISA acceptor beads for one hour (AlphaLISA SureFire Ultra p-SLP76 (Ser376), Perkin Elmer, ALSU-PSLP-A500), and donor beads for additional 2 hours at room temperature in the dark. […]

[2] = GST-HPK1 3.2 nM, 10 μM ATP, MBP substrate, ADP-Glo
[3] = SLP76 Ser376 phosphorylation after αCD3/αCD28 stimulation, Jurkat (human) or EL-4 (mouse) cells, table does not say which

full-length human HPK1 (MAP4K1), sequence (Q92918 whole entry): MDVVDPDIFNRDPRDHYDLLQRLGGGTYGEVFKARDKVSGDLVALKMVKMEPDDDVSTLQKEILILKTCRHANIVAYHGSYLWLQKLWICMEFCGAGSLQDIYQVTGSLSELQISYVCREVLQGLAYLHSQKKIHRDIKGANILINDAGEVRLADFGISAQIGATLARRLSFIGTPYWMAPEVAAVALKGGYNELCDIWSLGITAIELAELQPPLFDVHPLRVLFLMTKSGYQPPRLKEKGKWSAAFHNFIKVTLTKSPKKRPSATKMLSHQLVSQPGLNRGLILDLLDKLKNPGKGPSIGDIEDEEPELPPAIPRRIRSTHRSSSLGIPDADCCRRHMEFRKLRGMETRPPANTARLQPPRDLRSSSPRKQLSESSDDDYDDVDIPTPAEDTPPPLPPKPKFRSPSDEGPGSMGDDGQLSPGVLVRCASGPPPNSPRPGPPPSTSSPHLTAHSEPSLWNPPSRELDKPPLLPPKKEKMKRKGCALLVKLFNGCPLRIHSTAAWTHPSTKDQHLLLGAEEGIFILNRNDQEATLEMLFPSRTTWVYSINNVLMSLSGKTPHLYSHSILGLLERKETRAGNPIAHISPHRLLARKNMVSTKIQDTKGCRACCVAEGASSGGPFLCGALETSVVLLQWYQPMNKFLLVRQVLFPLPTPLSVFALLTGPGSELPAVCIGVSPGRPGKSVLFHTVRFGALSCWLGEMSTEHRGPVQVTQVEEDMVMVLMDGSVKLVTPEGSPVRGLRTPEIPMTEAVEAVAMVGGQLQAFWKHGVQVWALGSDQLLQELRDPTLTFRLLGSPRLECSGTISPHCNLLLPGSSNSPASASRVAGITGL

Row | Structure (SMILES) | IC50 [1, 2] | IC50 (HPK1 pSLP76 (Ser376); [3]) | IC50 [1] | IC50 (HPK1 pSLP76 (Ser376); Homo sapiens, Jurkat)
1 | NC(=O)c1cc(-c2cc(F)c(OCC3(O)CCOCC3)c(F)c2)nc2c(N[C@H]3CCCNC3)ncnc12 [Example 43, (S)-6-(3,5-difluoro-4-((4-hydroxytetrahydro-2H-pyran-4-yl)methoxy)phenyl)-4-(piperidin-3-ylamino)pyrido[3,2-d]pyrimidine-8-carboxamide] | < 100 nM | < 500 nM | – | –
2 | NC(=O)c1cc(-c2ccc(CC3(F)CCOCC3)cc2)nc2c(N[C@H]3CCCNC3)ncnc12 [Example 44, (S)-6-(4-((4-fluorotetrahydro-2H-pyran-4-yl)methyl)phenyl)-4-(piperidin-3-ylamino)pyrido[3,2-d]pyrimidine-8-carboxamide] | < 100 nM | < 500 nM | – | –
3 | COCCOc1ccc(-c2cc(C(N)=O)c3ncnc(N[C@H]4CCCNC4)c3n2)c(C#N)c1 [Example 46, (S)-6-(2-cyano-4-(2-methoxyethoxy)phenyl)-4-(piperidin-3-ylamino)pyrido[3,2-d]pyrimidine-8-carboxamide] | < 100 nM | > 1000 nM | – | –
4 | CC(C)(O)C(F)(F)Oc1ccc(-c2cc(C(N)=O)c3ncnc(N[C@H]4CCCNC4)c3n2)cc1 [Example 47, (S)-6-(4-(1,1-difluoro-2-hydroxy-2-methylpropoxy)phenyl)-4-(piperidin-3-ylamino)pyrido[3,2-d]pyrimidine-8-carboxamide] | < 100 nM | 500 to 1000 nM | – | –
5 | COCCOc1ccc(-c2cc(C(N)=O)c3ncnc(N[C@@H]4CNCC[C@H]4F)c3n2)cc1 [Example 48, 4-(((3R,4R)-4-fluoropiperidin-3-yl)amino)-6-(4-(2-methoxyethoxy)phenyl)pyrido[3,2-d]pyrimidine-8-carboxamide] | < 100 nM | < 500 nM | – | –
6 | COCCOc1ccc(-c2cc(C(N)=O)c3ncnc(N[C@H]4CNCC[C@@H]4F)c3n2)cc1 [Example 49, 4-(((3S,4S)-4-fluoropiperidin-3-yl)amino)-6-(4-(2-methoxyethoxy)phenyl)pyrido[3,2-d]pyrimidine-8-carboxamide] | > 1000 nM | > 1000 nM | – | –
7 | NC(=O)c1cc(-c2ccc(O[C@H]3CN4CCC3CC4)cc2)nc2c(N[C@H]3CCCNC3)ncnc12 [Example 50, 4-(((S)-piperidin-3-yl)amino)-6-(4-(((R)-quinuclidin-3-yl)oxy)phenyl)pyrido[3,2-d]pyrimidine-8-carboxamide] | – | – | < 100 nM | > 1000 nM
8 | C[C@@H](O)COc1ccc(-c2cc(C(N)=O)c3ncnc(N[C@H]4CCCNC4)c3n2)cc1 [Example 51, 6-(4-((R)-2-hydroxypropoxy)phenyl)-4-(((S)-piperidin-3-yl)amino)pyrido[3,2-d]pyrimidine-8-carboxamide] | – | – | < 100 nM | < 500 nM
9 | NC(=O)c1cc(-c2ccc(OCCCN3CCOCC3)cc2)nc2c(N[C@H]3CCCNC3)ncnc12 [Example 52, (S)-6-(4-(3-morpholinopropoxy)phenyl)-4-(piperidin-3-ylamino)pyrido[3,2-d]pyrimidine-8-carboxamide] | < 100 nM | < 500 nM | – | –
10 | CS(=O)(=O)Cc1ccc(-c2cc(C(N)=O)c3ncnc(N[C@H]4CCCNC4)c3n2)cc1 [Example 54, (S)-6-(4-((methylsulfonyl)methyl)phenyl)-4-(piperidin-3-ylamino)pyrido[3,2-d]pyrimidine-8-carboxamide] | < 100 nM | > 1000 nM | – | –
11 | COCCOc1ccc(-c2cc(C(N)=O)c3ncnc(N[C@H]4CCCNC4)c3n2)cn1 [Example 55, (S)-6-(6-(2-methoxyethoxy)pyridin-3-yl)-4-(piperidin-3-ylamino)pyrido[3,2-d]pyrimidine-8-carboxamide] | < 100 nM | > 1000 nM | – | –
12 | CC1(F)CN(Cc2ccc(-c3cc(C(N)=O)c4ncnc(N[C@H]5CCCNC5)c4n3)cc2)C1 [Example 56, (S)-6-(4-((3-fluoro-3-methylazetidin-1-yl)methyl)phenyl)-4-(piperidin-3-ylamino)pyrido[3,2-d]pyrimidine-8-carboxamide] | < 100 nM | < 500 nM | – | –
13 | NC(=O)c1cc(-c2ccc(CN3CCO[C@H](C(F)(F)F)C3)cc2)nc2c(N[C@H]3CCCNC3)ncnc12 [Example 57, 4-[(3S)-piperidin-3-ylamino]-6-(4-[[(2S)-2(trifluoromethyl)morpholin-4-yl]methyl]phenyl) pyrido [3,2-d]pyrimidine-8-carboxamide] | < 100 nM | < 500 nM | – | –
14 | NC(=O)c1cc(-c2ccc(C3(O)CC3)cc2)nc2c(N[C@H]3CCCNC3)ncnc12 [Example 58, 6-[4-(1-hydroxycyclopropyl)phenyl]-4-[(3S)-piperidin-3-ylamino]pyrido[3,2-d]pyrimidine-8-carboxamide] | < 100 nM | < 500 nM | – | –
15 | CN1CCN(c2ccc(-c3cc(C(N)=O)c4ncnc(N[C@H]5CCCNC5)c4n3)cn2)CC1 [Example 59, 6-[6-(4-methylpiperazin-1-yl)pyridin-3-yl]-4-[(3S)-piperidin-3-ylamino]pyrido[3,2-d]pyrimidine-8-carboxamide] | < 100 nM | < 500 nM | – | –
16 | COC(C)(C)COc1ccc(-c2cc(C(N)=O)c3ncnc(N[C@H]4CCCNC4)c3n2)cc1 [Example 61, 6-[4-(2-methoxy-2-methylpropoxy)phenyl]-4-[(3S)-piperidin-3-ylamino]pyrido[3,2-d]pyrimidine-8-carboxamide] | < 100 nM | < 500 nM | – | –
17 | CC(C)(O)COc1ccc(-c2cc(C(N)=O)c3ncnc(N[C@H]4CCCNC4)c3n2)cc1 [Example 62, 6-[4-(2-hydroxy-2-methylpropoxy)phenyl]-4-[(3S)-piperidin-3-ylamino]pyrido[3,2-d]pyrimidine-8-carboxamide] | < 100 nM | < 500 nM | – | –
18 | NC(=O)c1cc(-c2ccc(CN3CC4CC(C3)O4)cc2)nc2c(N[C@H]3CCCNC3)ncnc12 [Example 63, 6-(4-[6-oxa-3-azabicyclo [3.1.1]heptan-3-ylmethyl]phenyl)-4-[(3S)-piperidin-3-ylamino]pyrido[3,2-d]pyrimidine-8-carboxamide] | < 100 nM | < 500 nM | – | –
19 | NC(=O)c1cc(-c2ccc(CN3C4COCC3COC4)cc2)nc2c(N[C@H]3CCCNC3)ncnc12 [Example 64, 6-(4-[3,7-dioxa-9-azabicyclo [3.3.1]nonan-9-ylmethyl]phenyl)-4-[(3S)-piperidin-3-ylamino]pyrido[3,2-d]pyrimidine-8-carboxamide] | < 100 nM | < 500 nM | – | –
20 | NC(=O)c1cc(-c2ccc(CN3CC4CCC(C3)O4)cc2)nc2c(N[C@H]3CCCNC3)ncnc12 [Example 65, 6-(4-[8-oxa-3-azabicyclo [3.2.1]octan-3-ylmethyl]phenyl)-4-[(3S)-piperidin-3-ylamino]pyrido[3,2-d]pyrimidine-8-carboxamide] | < 100 nM | < 500 nM | – | –
21 | NC(=O)c1cc(-c2ccc(CN3C4CCC3COC4)cc2)nc2c(N[C@H]3CCCNC3)ncnc12 [Example 66, 6-(4-[3-oxa-8-azabicyclo [3.2.1]octan-8-ylmethyl]phenyl)-4-[(3S)-piperidin-3-ylamino]pyrido[3,2-d]pyrimidine-8-carboxamide] | < 100 nM | < 500 nM | – | –
22 | NC(=O)c1cc(-c2ccc(CN3C4COCC3C4)cc2)nc2c(N[C@H]3CCCNC3)ncnc12 [Example 67, 6-(4-[3-oxa-6-azabicyclo [3.1.1]heptan-6-ylmethyl]phenyl)-4-[(3S)-piperidin-3-ylamino]pyrido[3,2-d]pyrimidine-8-carboxamide] | < 100 nM | > 1000 nM | – | –
